The record followed here is patent US8383629B2, “Inhibitors of 11β-hydroxysteroid dehydrogenase type 1” (Vitae Pharmaceuticals, Inc., priority 2008, dated 2013).

The test has as its target T1, human 11β-HSD1 (Homo sapiens, UniProt P28845).
T1 construct: expressed in transfected cells; host or cells: CHO cells (microsomes)
As to the kind of experiment: Inhibition of microsomal preparation of 11β-HSD1 (SPA, Biological Test Example 1). The class given is biochemical. The settings on record: for IC50: microsomes from CHO cells overexpressing human 11β-HSD1, read-out: IC50 Range; for inhibition at 0.111 µM: 111 nM. As for the experimental part: The inhibition of microsomal preparation of 11β-HSD1 by compounds of the invention was measured essentially as previously described (K. Solly, S. S. Mundt, H. J. Zokian, G. J. Ding, A. Hermanowski-Vosatka, B. Strulovici, and W. Zheng, High-Throughput Screening of 11-Beta-Hydroxysteroid Dehydrogenase Type 1 in Scintillation Proximity Assay Format. Assay Drug Dev Technol 3 (2005) 377-384). All reactions were carried out at rt in 96 well clear flexible PET Microbeta plates (PerkinElmer). The assay begins by dispensing 49 μl of substrate solution (50 mM HEPES, pH 7.4, 100 mM KCl, 5 mM NaCl, 2 mM MgCl2, 2 mM NADPH and 160 nM [^3H]cortisone (1 Ci/mmol)) and mixing in 1 μL of the test compounds in DMSO previously diluted in half-log increments (8 points) starting at 0.1 mM. After a 10 minute pre-incubation, 50 μL of enzyme solution containing microsomes isolated from CHO cells overexpressing human 11β-HSD1 (10-20 μg/ml of total protein) was added, and the plates were incubated for 90 minutes at rt. The reaction was stopped by adding 50 μl of the SPA beads suspension containing 10 μM 18β-glycyrrhetinic acid, 5 mg/ml protein A coated YSi SPA beads (GE Healthcare) and 3.3 μg/ml of anti-cortisol antibody (East Coast Biologics) in Superblock buffer (Bio-Rad). The plates were shaken for 120 minutes at rt, and the SPA signal corresponding to [^3H]cortisol was measured on a Microbeta plate reader.

Molecules are shown by their SMILES.

T1 sequence (P28845 whole entry): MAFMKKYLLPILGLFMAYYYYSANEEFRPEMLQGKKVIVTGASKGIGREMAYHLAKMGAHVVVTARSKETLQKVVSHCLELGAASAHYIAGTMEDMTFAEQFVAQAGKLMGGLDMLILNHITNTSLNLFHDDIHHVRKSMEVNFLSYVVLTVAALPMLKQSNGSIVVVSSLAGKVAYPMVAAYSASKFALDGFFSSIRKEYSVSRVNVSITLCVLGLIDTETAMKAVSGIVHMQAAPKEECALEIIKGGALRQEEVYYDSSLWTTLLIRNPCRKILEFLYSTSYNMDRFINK

As usually defined, the inhibition is the change of the read-out against control, counted positive when it falls. A lower inhibition goes with little suppression. What is called IC50 is the concentration at which inhibition is half-maximal. For the compound `O=C(CCc1ccccc1C(F)(F)F)N1CCC2(CC1)C(=O)Nc1ccccc12` [EXAMPLE 67, 1′-(3-(2-(trifluoromethyl)phenyl)propanoyl)spiro[indoline-3,4′-piperidin]-2-one], the IC50 is less than 0.1 µM. Where the note is “100 nM”, this compound came in with an inhibition at 0.1 µM of 100%.
Turning to `O=C1NC2(CCN(C(=O)CCc3ccccc3C(F)(F)F)CC2)c2c(Br)cccc21` [EXAMPLE 71, 7-bromo-1′-(3-(2-(trifluoromethyl)phenyl)propanoyl)spiro[isoindoline-1,4′-piperidin]-3-one], the inhibition at 0.111 µM amounted to 93.9% and the IC50 was less than 0.1 µM.
On to `O=C(O)CC1CC2(CCN(C(=O)/C=C/c3ccccc3C(F)(F)F)CC2)c2c(Br)cccc21` (single isomer, unassigned; isomer 2) [EXAMPLE 2.2, (E)-2-(7-bromo-1′-(3-(2-(trifluoromethyl)phenyl)acryloyl)-2,3-dihydrospiro[indene-1,4′-piperidine]-3-yl)acetic acid isomer 2], for which the IC50 was less than 0.1 µM. Further, the “Average % inhibition at 100 nM” value (100 nM, 0.1 µM) is 100.3%.
`O=C1NC2(CCN(C(=O)Cc3ccccc3C(F)(F)F)CC2)c2c(Cl)cccc21` [EXAMPLE 45, 7-chloro-1′-(2-(2-(trifluoromethyl)phenyl)acetyl)spiro[isoindoline-1,4′-piperidin]-3-one]: the inhibition at 0.111 µM came to 43.2% and the IC50 fell in the range of 0.1 to 1 µM.
In the same order, the values of `CCOC(=O)CC1CC2(CCN(C(=O)NCc3ccccc3OC(C)C)CC2)c2c(Br)cccc21` (centres unmarked) [EXAMPLE 95, Ethyl 2-(7-bromo-1′-(2-isopropoxybenzylcarbamoyl)-2,3-dihydrospiro[indene-1,4′-piperidine]-3-yl)acetate] are 19.9% and 0.1 to 1 µM.
In the same order, the values of `CN1CCN(C(=O)c2ccc3c(c2)C2(CCN(C(=O)/C=C/c4ccccc4C(F)(F)F)CC2)C(=O)N3C)CC1` [EXAMPLE 37, (E)-1-methyl-5-(4-methylpiperazine-1-carbonyl)-1′-(3-(2-(trifluoromethyl)phenyl)acryloyl)spiro[indoline-3,4′-piperidin]-2-one] are 7.1% and 0.1 to 1 µM.
For `O=C(O)CC1CC2(CCN(C(=O)/C=C/c3ccccc3C(F)(F)F)CC2)c2cc(F)ccc21` (racemic) [EXAMPLE 11, (±)-(E)-2-(6-fluoro-1′-(3-(2-(trifluoromethyl)phenyl)acryloyl)-2,3-dihydrospiro[indene-1,4′-piperidine]-3-yl)acetic acid], at 0.111 µM the inhibition was 75.1% and the IC50 was less than 0.1 µM.
For `O=C(O)CC1CC2(CCN(C(=O)CCc3ccccc3Cl)CC2)c2c(Cl)cccc21` (centres unmarked) [EXAMPLE 74, 2-(7-chloro-1′-(3-(2-chlorophenyl)propanoyl)-2,3-dihydrospiro[indene-1,4′-piperidine]-3-yl)acetic acid], the inhibition at 0.111 µM was 89.5% and the IC50 was less than 0.1 µM.
For `CCOC(=O)CC1CC2(CCN(C(=O)NCc3c(C)cccc3Cl)CC2)c2c(Br)cccc21` (centres unmarked) [EXAMPLE 89, Ethyl 2-(7-bromo-1′-(2-chloro-6-methylbenzylcarbamoyl)-2,3-dihydrospiro[indene-1,4′-piperidine]-3-yl)acetate], in that order: 61.2% and less than 0.1 µM.
For `O=C(Cc1ccccc1C(F)(F)F)N1CCC2(CC1)C(=O)Nc1ccccc12` [EXAMPLE 47, 1′-(2-(2-(trifluoromethyl)phenyl)acetyl)spiro[indoline-3,4′-piperidin]-2-one], in that order: 83.3% and less than 0.1 µM.
In the same order, the values of `CNC(=O)N1Cc2ccccc2C2(CCN(C(=O)CCc3ccccc3C(F)(F)F)CC2)C1` [EXAMPLE 68, N-methyl-1′-(3-(2-(trifluoromethyl)phenyl)propanoyl)-1H-spiro[isoquinoline-4,4′-piperidine]-2(3H)-carboxamide] are 81.5% and less than 0.1 µM.
Take `CN1C(=O)c2cccc(Cl)c2C12CCN(C(=O)/C=C/c1c(Cl)cccc1Cl)CC2` [EXAMPLE 26, (E)-7-chloro-1′-(3-(2,6-dichlorophenyl)acryloyl)-2-methylspiro[isoindoline-1,4′-piperidin]-3-one]: the inhibition at 0.111 µM came out at 79% and the IC50 is less than 0.1 µM.
In the same order, the values of `COc1ccc2c(c1)CCNC21CCN(C(=O)CCc2ccccc2C)CC1` [EXAMPLE 63, 1-(6-methoxy-3,4-dihydro-2H-spiro[isoquinoline-1,4′-piperidine]-1′-yl)-3-o-tolylpropane-1-one] are 22.5% and 0.1 to 1 µM.
For `O=C1CC2(CCN(C(=O)/C=C/c3ccccc3C(F)(F)F)CC2)c2c(Br)cccc21` [EXAMPLE 15, (E)-7-bromo-1′-(3-(2-(trifluoromethyl)phenyl)acryloyl)spiro[indene-1,4′-piperidin]-3(2H)-one], 0.111 µM produced 92.6% inhibition and the IC50 is less than 0.1 µM. Testing at 0.1 µM (100 nM) gave an inhibition of 95.3%.
With `O=C(O)CC1CC2(CCN(C(=O)/C=C/c3ccccc3Cl)CC2)c2c(Cl)cccc21` (racemic) [EXAMPLE 8, (±)-(E)-2-(7-chloro-1′-(3-(2-chlorophenyl)acryloyl)-2,3-dihydrospiro[indene-1,4′-piperidine]-3-yl)acetic acid], the inhibition at 0.111 µM came out at 85.5% and the IC50 was less than 0.1 µM.
Take `NC(=O)CC1CC2(CCN(C(=O)/C=C/c3ccccc3C(F)(F)F)CC2)c2cc(F)ccc21` (racemic) [EXAMPLE 14, (±)-(E)-2-(6-fluoro-1′-(3-(2-(trifluoromethyl)phenyl)acryloyl)-2,3-dihydrospiro[indene-1,4′-piperidine]-3-yl)acetamide]: at 0.111 µM the inhibition was 90.9% and the IC50 is less than 0.1 µM. In addition, for the setting “100 nM”, at 0.1 µM the inhibition was 85.6%.
For the compound `O=C(O)CC1CC2(CCN(C(=O)CCc3ccc(Cl)cc3Cl)CC2)c2c(Cl)cccc21` (centres unmarked) [EXAMPLE 75, 2-(7-chloro-1′-(3-(2,4-dichlorophenyl)propanoyl)-2,3-dihydrospiro[indene-1,4′-piperidine]-3-yl)acetic acid], at 0.111 µM the inhibition was 52.2% and the IC50 was less than 0.1 µM.
As for `CCOC(=O)CC1CC2(CCN(C(=O)CCc3ccccc3C(F)(F)F)CC2)c2c(Br)cccc21` (centres unmarked) [EXAMPLE 56, Ethyl 2-(7-bromo-1′-(3-(2-(trifluoromethyl)phenyl)propanoyl)-2,3-dihydrospiro[indene-1,4′-piperidine]-3-yl)acetate], the inhibition at 0.111 µM amounted to 92.7% and the IC50 is less than 0.1 µM.
As to `O=C(CCc1ccccc1C(F)(F)F)N1CCC2(CC1)CNCc1ccccc12` [EXAMPLE 59, 1-(2,3-dihydro-1H-spiro[isoquinoline-4,4′-piperidine]-1′-yl)-3-(2-(trifluoromethyl)phenyl)propan-1-one], at 0.111 µM the inhibition was 66.6% and the IC50 is less than 0.1 µM.
For `CN(Cc1ccccc1F)C(=O)N1CCC2(CC1)CC(CC(=O)O)c1cccc(Br)c12` (centres unmarked) [EXAMPLE 104, 2-(7-bromo-1′((2-fluorobenzyl)(methyl)carbamoyl)-2,3-dihydrospiro[indene-1,4′-piperidine]-3-yl)acetic acid], the inhibition at 0.111 µM worked out at 88.7% and the IC50 was less than 0.1 µM.
In the same order, the values of `COC(=O)c1ccc2c(c1)C1(CCN(C(=O)/C=C/c3ccccc3C(F)(F)F)CC1)C(=O)N2C` [EXAMPLE 32, (E)-methyl 1-methyl-2-oxo-1′-(3-(2-(trifluoromethyl)phenyl)acryloyl)spiro[indoline-3,4′-piperidine]-5-carboxylate] are 83.4% and less than 0.1 µM.
Consider `CCN1C(=O)C2(CCN(C(=O)CCc3ccccc3C(F)(F)F)CC2)c2cc(C(=O)OC)ccc21` [EXAMPLE 78, Methyl 1-ethyl-2-oxo-1′-(3-(2-(trifluoromethyl)phenyl)propanoyl)spiro[indoline-3,4′-piperidine]-5-carboxylate], for which the inhibition at 0.111 µM came out at 52.4% and the IC50 is less than 0.1 µM.
Turning to `CN1C(=O)C2(CCN(C(=O)CCc3ccccc3C(F)(F)F)CC2)c2cc(C(N)=O)ccc21` [EXAMPLE 77, 1-methyl-2-oxo-1′-(3-(2-(trifluoromethyl)phenyl)propanoyl)spiro[indoline-3,4′-piperidine]-5-carboxamide], the inhibition at 0.111 µM stood at 26.3% and the half-inhibitory concentration (IC50) was in the range of 0.1 to 1 µM.
For `Cc1ccccc1CNC(=O)N1CCC2(CC1)CC(CC(=O)O)c1cccc(Br)c12` (centres unmarked) [EXAMPLE 87, 2-(7-bromo-1′-(2-methylbenzylcarbamoyl)-2,3-dihydrospiro[indene-1,4′-piperidine]-3-yl)acetic acid], in that order: 57.2% and less than 0.1 µM.
Take `CCOC(=O)CC1CC2(CCN(C(=O)/C=C/c3ccccc3C(F)(F)F)CC2)c2c(Br)cccc21` (racemic) [EXAMPLE 1, (±)-(E)-ethyl 2-(7-bromo-1′-(3-(2-(trifluoromethyl)phenyl)acryloyl)-2,3-dihydrospiro[indene-1,4′-piperidine]-3-yl)acetate]: the inhibition at 0.111 µM is 89.4% and the IC50 was less than 0.1 µM. At 0.1 µM the inhibition (100 nM) was 94.9%.
